Test results taken from paper PMC12002112, “NMR Solution Structure of the N‐Terminal GSPII Domain from the Thermus Thermophilus Traffic ATPase PilF and Reconstruction of its c‐di‐GMP Binding Capability” (Chembiochem, 2025).
Several values for one entry are separate records, joined by “and”; a condition that tells them apart may be missing. Identical values can stand only once.

What was measured:
[1] = target: T1, PilF1–889 (full‐length PilF) (Thermus thermophilus, UniProt Q5SLC9); experiment: ITC c‐di‐GMP binding, full‐length PilF; settings: 20 °C
T1 sequence (Q5SLC9 1-889): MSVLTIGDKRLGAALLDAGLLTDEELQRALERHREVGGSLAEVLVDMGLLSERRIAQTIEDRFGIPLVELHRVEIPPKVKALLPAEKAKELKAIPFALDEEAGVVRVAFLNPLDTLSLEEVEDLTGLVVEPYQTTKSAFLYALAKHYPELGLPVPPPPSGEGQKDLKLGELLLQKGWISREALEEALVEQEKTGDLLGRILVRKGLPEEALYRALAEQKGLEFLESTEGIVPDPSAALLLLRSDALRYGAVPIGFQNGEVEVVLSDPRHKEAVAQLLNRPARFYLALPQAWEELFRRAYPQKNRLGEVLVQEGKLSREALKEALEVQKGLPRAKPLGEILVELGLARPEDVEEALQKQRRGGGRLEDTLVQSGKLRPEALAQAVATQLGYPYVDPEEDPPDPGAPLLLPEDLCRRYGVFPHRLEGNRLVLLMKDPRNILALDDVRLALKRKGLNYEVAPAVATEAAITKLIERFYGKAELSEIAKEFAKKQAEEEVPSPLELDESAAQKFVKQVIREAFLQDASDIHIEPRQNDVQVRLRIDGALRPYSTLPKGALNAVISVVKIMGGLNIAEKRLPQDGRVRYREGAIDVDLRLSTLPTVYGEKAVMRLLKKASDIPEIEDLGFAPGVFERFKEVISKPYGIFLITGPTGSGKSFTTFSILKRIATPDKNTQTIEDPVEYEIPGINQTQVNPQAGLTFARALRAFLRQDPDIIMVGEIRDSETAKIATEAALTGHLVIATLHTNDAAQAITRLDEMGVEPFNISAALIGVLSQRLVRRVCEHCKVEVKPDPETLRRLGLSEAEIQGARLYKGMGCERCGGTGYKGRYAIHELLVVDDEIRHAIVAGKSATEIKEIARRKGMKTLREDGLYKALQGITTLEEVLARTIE

[2] = tested on: PilF1–154 (GSPII‐A); experiment: ITC c‐di‐GMP binding, isolated GSPII‐A domain; design: species or system Thermus thermophilus; settings: isolated PilF1–154
Experimental: (§1) The c‐di‐GMP binding capabilities of the various PilF1–154, PilF1–65 and PilF9–65 constructs were characterized by isothermal titration calorimetry (ITC) measurements in three independent titrations for each construct with detectable binding to c‐di‐GMP. All ITC‐measurements were carried out in 50 mM Tris‐HCl pH 7.5, 200 mM sodium chloride, 1 mM β‐mercaptoethanol at 20 °C using a MicroCal iTC200 instrument (Malvern Pananalytical, UK). In total 40 μl c‐di‐GMP was titrated to 270 μl protein after an initial delay of 120 s in 20 injections while stirring the sample with 750 rpm. The first injection of 0.2 μl c‐di‐GMP in 0.4 s was followed by 19 successive injections of 2 μl in 4 s separated by a 180 s delay using a reference power of 11 μcal^−1. The feedback mode was set to high. Protein and c‐di‐GMP concentrations ranged from 30 μM to 100 μM and 300 μM to 1000 μM, respectively, and were adjusted to the respective binding affinities of the corresponding constructs to optimize measurement precision. Processing of the thermograms was carried out with Origin 7.0 (OriginLab) using a one‐site binding model. An overview of all ITC measurements is given in Supplementary Table 1.

[3] = tested on: PilF1–65 F63Y; experiment: ITC c‐di‐GMP binding, N‐terminal subdomain; design: species or system Thermus thermophilus
Experimental: as §1

[4] = target: T2, PilF1–65 F63Y H33Q S39R A41G I55L I59L R62Q (PilF1–65 F63Y mut6) (Thermus thermophilus, UniProt Q5SLC9, A41G/F63Y/H33Q/I55L/I59L/R62Q/S39R); experiment: ITC c‐di‐GMP binding, PilF1–65 F63Y mut6
T2 sequence (Q5SLC9 1-65 H33Q/S39R/A41G/I55L/I59L/R62Q/F63Y): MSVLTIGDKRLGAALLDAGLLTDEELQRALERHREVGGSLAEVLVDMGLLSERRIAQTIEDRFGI
Experimental: as §1

[5] = target: T3, PilF9–65 F63Y H33Q S39R A41G I55L I59L R62Q (PilF9–65 F63Y mut6) (Thermus thermophilus, UniProt Q5SLC9, A41G/F63Y/H33Q/I55L/I59L/R62Q/S39R); experiment: ITC c‐di‐GMP binding, PilF9–65 F63Y mut6
T3 sequence (Q5SLC9 9-65 H33Q/S39R/A41G/I55L/I59L/R62Q/F63Y): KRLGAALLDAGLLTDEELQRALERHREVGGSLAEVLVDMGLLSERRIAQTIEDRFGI
Experimental: as §1

[6] = target: T4, PilF9–65 F63Y H33Q S39R A41G R62Q (Thermus thermophilus, UniProt Q5SLC9, A41G/F63Y/H33Q/R62Q/S39R); experiment: ITC c‐di‐GMP binding, PilF9–65 F63Y H33Q S39R A41G R62Q; settings: 20 °C
T4 sequence (Q5SLC9 9-65 H33Q/S39R/A41G/R62Q/F63Y): T3 sequence (Q5SLC9 9-65 H33Q/S39R/A41G/I55L/I59L/R62Q/F63Y)
Experimental: as §1

[7] = target: T5, PilF9–65 F63Y H33Q S39R R62Q (Thermus thermophilus, UniProt Q5SLC9, F63Y/H33Q/R62Q/S39R); experiment: ITC c‐di‐GMP binding, PilF9–65 F63Y H33Q S39R R62Q; settings: 20 °C
T5 sequence (Q5SLC9 9-65 H33Q/S39R/R62Q/F63Y): T3 sequence (Q5SLC9 9-65 H33Q/S39R/A41G/I55L/I59L/R62Q/F63Y)
Experimental: as §1

[8] = tested on: PilF9–65 F63Y H33Q R62Q; experiment: ITC c‐di‐GMP binding, PilF9–65 F63Y H33Q R62Q; design: species or system Thermus thermophilus; settings: S39 reintroduced
Experimental: as §1

[9] = tested on: PilF1–154; experiment: NMR titration with c‐di‐GMP, PilF1–154; assay type: binding, Thermus thermophilus; settings: 10 equivalents of c‐di‐GMP, 45 °C
Experimental: (§2) For NMR experiments, all PilF1–154, PilF1–65 and PilF9–65 samples were prepared in a buffer containing 50 mM BisTris‐HCl pH 5.8, 200 mM NaCl, 1 mM β‐mercaptoethanol with the addition of 5 % (v/v) D2O. 200 μM 2,2‐dimethyl‐2‐silapentane‐5‐sulfonic acid (DSS) was used to directly reference the ^1H chemical shifts internally. With the appropriate conversion factors, the heteronuclear ^13C, ^15N and ^31P chemical shifts were referenced indirectly.[73] All spectra were processed and referenced with Bruker TopSpin™ versions 3.5 and 4.0.7. Chemical shifts were assigned in CARA.[74] NMR‐spectra were acquired on Bruker AVANCE 600, 700, 800, 900 and 950 MHz spectrometers equipped with cryogenic triple resonance probes at 45 °C for PilF1–154 constructs and at 20 °C for the PilF1–65 and the PilF9–65 constructs.
(§3) NMR titration experiments were carried out as ligand binding assays with uniformly ^15N labeled protein samples from 50 μM to 100 μM and unlabeled c‐di‐GMP. A series of ^15N‐HSQC, ^1H,^15N‐SOFAST‐HMQC or ^15N‐BEST‐TROSY‐HSQC spectra were recorded with increasing c‐di‐GMP concentrations (up to 1.4 mM) and chemical shift changes were evaluated with TopSpin™ 4.0.7.

[10] = tested on: PilF1–154 H33Q S39R A41G I55L I59L R62Q; experiment: NMR titration with c‐di‐GMP, MshEN‐like PilF1–154 construct; assay type: binding, Thermus thermophilus; settings: 15 equivalents of c‐di‐GMP
Experimental: as §2, §3

[11] = tested on: PilF1–65 F63Y; experiment: NMR titration with c‐di‐GMP, PilF1–65 F63Y; assay type: binding, Thermus thermophilus
Experimental: as §2, §3

[12] = target: T2, PilF1–65 F63Y H33Q S39R A41G I55L I59L R62Q (PilF1–65 F63Y mut6); experiment: NMR titration with c‐di‐GMP, PilF1–65 F63Y mut6; assay type: binding; settings: high excess of ligand (10fold), 20 °C
Experimental: as §2, §3

[13] = target: T5, PilF9–65 F63Y H33Q S39R R62Q; experiment: NMR titration with c‐di‐GMP, PilF9–65 F63Y H33Q S39R R62Q; assay type: binding; settings: high excess of the ligand (15fold), 20 °C
Experimental: as §2, §3

[14] = target: MshEN; design: method as in PMID 27578558; settings: monomeric c‐di‐GMP; read-out: KD (affinity) for MshEN; cited from earlier work

In the case of Nc1nc2c(ncn2C2OC3COP(=O)(O)OC4C(COP(=O)(O)OC3C2O)OC(n2cnc3c(=O)[nH]c(N)nc32)C4O)c(=O)[nH]1 (centres unmarked) [c‐di‐GMP, 3’→5’ cyclic dimeric guanosine monophosphate], the “ΔH (binding event 1)” value ([1]; event 1) is reported as -11.763 ± 0.78 kcal/mol, the “ΔS (binding event 1)” value ([1]; event 1) is reported as -10.4 ± 2.7 cal/mol/deg and the “ΔH (binding event 2)” value ([1]; event 2) is reported as -15.683 ± 0.97 kcal/mol. The “ΔS (binding event 2)” value ([1]; event 2) was -16.5 ± 2.2 cal/mol/deg, the Kd ([1]; pH 7.5, PilF1–889, binding event 1, read-out: KD1 (first binding event)) was 324 nM and the “N (binding event 1)” value ([1]; stoichiometry, event 1) was 0.72 ± 0.1. The “N (binding event 2)” value ([1]; stoichiometry, event 2) was 0.59 ± 0.03, the “c‐di‐GMP binding in ITC” value [2] was “did not show any sign of c‐di‐GMP binding” and the “c‐di‐GMP binding in ITC” value [3] was “not detectable”. It also gave an N ([4]; ITC, 20 °C) of 0.6 ± 0.2, a ΔH ([4]; ITC, 20 °C) of -1.342 ± 0.513 kcal/mol and a ΔS ([4]; ITC, 20 °C) of 17.1 ± 2.3 cal/mol/deg. For the same compound, the Kd ([4]; ITC, 20 °C, pH 7.5, PilF1–65 F63Y mut6) was 13000 ± 2000 nM, the “difference in the free energy of binding vs MshEN” value ([4]; at 20° C) was ~ 1.9 kcal/mol and the “difference in the free energy of binding vs N‐terminal subdomain (residue 1–62) of MshEN” value ([4]; at 20° C) was ~2.3 kcal/mol. For the same compound, the N ([5]; ITC, 20 °C) was 1.2 ± 0.1, the ΔH ([5]; ITC, 20 °C) was -12.953 ± 0.441 kcal/mol and the ΔS ([5]; ITC, 20 °C) was -17.9 ± 1.4 cal/mol/deg. The Kd ([5]; ITC, 20 °C, pH 7.5, PilF9–65 F63Y mut6) was 695 ± 42 nM, the “difference in the free energy of binding vs PilF1–65 F63Y mut6” value ([5]; at 20° C) was 1.6 kcal/mol and the N [6] was 0.8 ± 0.1. The ΔH [6] was -10.127 ± 0.499 kcal/mol, the ΔS [6] was -6.4 ± 1.7 cal/mol/deg and the Kd ([6]; pH 7.5, PilF9–65 F63Y H33Q S39R A41G R62Q) was 1800 ± 300 nM. The N [7] was 0.7 ± 0.1, the ΔH [7] was -9.574 ± 0.243 kcal/mol and the ΔS [7] was -3.6 ± 0.7 cal/mol/deg. The Kd ([7]; pH 7.5, PilF9–65 F63Y H33Q S39R R62Q) was 19000 ± 6000 nM, the “c‐di‐GMP binding activity in ITC” value [8] was “complete loss of c‐di‐GMP binding activity” and the “chemical shift changes on adding c‐di‐GMP” value [9] was “does not cause any chemical shift changes”. The “c‐di‐GMP binding in NMR‐titration” value [10] was “no c‐di‐GMP binding”, the “c‐di‐GMP binding in NMR titration” value [11] was “not detectable” and the “chemical shift changes on adding c‐di‐GMP” value [12] was “large chemical shift changes”. The “c‐di‐GMP binding in NMR titration” value [13] was “saturated ligand binding” and the Kd [14] was 500 nM and ~500 nM.
